Results taken from US20240228482A1, “COMPOUNDS, COMPOSITIONS AND METHODS OF TREATING CANCER” (HOTSPOT THERAPEUTICS, INC., priority 2021, published 2024).

Biological target: T1, CBL-B (Homo sapiens, UniProt Q13191)
T1 construct: GST
Assay: CBL-B TR-FRET IC50 screening (E1/E2 ubiquitination, Biotin-Ubiquitin, Anti GST-Tb donor / Streptavidin-d2 acceptor)
Type: biochemical
Conditions: CBL-B 10 nM final; 11-point titration from 100 uM; binned A-F; read-out: CBL-B TR-FRET activity IC50

T1 sequence (Q13191 whole entry): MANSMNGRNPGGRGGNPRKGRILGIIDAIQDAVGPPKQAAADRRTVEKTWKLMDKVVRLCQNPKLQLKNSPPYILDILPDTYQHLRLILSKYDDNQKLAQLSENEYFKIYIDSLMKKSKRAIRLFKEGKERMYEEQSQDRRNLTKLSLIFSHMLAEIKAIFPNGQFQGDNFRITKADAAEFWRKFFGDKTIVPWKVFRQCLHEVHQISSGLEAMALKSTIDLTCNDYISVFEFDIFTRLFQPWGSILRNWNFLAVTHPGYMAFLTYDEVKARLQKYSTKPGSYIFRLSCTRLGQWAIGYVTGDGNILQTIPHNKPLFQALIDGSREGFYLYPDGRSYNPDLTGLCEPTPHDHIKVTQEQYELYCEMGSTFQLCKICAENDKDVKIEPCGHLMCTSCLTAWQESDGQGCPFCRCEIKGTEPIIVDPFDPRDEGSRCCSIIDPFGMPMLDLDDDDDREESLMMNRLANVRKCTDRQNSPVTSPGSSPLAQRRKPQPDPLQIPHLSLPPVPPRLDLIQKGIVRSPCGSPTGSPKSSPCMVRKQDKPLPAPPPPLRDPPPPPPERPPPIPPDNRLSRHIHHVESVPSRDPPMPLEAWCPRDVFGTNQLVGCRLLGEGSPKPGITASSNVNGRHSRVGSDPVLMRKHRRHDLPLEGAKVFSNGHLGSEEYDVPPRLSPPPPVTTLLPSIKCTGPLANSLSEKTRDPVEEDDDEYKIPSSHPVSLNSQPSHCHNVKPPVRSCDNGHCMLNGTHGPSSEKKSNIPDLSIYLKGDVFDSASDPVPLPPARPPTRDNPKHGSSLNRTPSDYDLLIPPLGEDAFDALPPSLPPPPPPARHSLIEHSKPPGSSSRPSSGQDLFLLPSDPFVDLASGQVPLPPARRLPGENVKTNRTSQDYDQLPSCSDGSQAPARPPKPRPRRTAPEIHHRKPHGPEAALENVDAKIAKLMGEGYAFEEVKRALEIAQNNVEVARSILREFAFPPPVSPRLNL

SMILES | IC50
Cc1conc1CC1(c2cccc(-n3cc4c(C(F)(F)F)cc(CN5CCC[C@H](C)C5)cn4c3=O)c2)COC1 [Compound 185] | 100 to 300 nM
[2H]C([2H])([2H])n1cnnc1CC1(c2cccc(-n3cc4c(C(F)(F)F)cc([C@H](C)N5CCC[C@H](C)C5)cn4c3=O)c2)COC1 [Compound 278_P1] | < 100 nM
Cn1cnnc1CC1(c2cccc(-n3cc4c(C(F)(F)F)cc(OCC(C)(C)O)cn4c3=O)c2)COC1 [Compound 98] | 100 to 300 nM
Cn1cnnc1[C@]1(c2cccc(-n3cc4c(C(F)(F)F)cc(CN5CC6(CC6)C5)cn4c3=O)c2)C[C@@H](C)C1 [Compound 228] | < 100 nM
C[C@@H](c1cc(C(F)(F)F)c2cn(-c3cccc(C4(Cc5nncn5C)COC4)c3)c(=O)n2c1)N1CC2CC2C1 (single isomer, unassigned) [Compound 32] | < 100 nM
Cn1cnnc1[C@@H](F)C1(c2cccc(-n3cc4c(C(F)(F)F)cc(CN5CCC(F)CC5)cn4c3=O)c2)COC1 [Compound 44] | < 100 nM
Cn1cnnc1CC1(c2cccc(-n3cc4c(Cl)cc(CN5CCC6(CC6)C5)cn4c3=O)c2)COC1 (single isomer, unassigned) [Compound 67] | < 100 nM
C[C@H]1CCCN(Cc2cc(C(F)(F)F)c3cn(-c4cccc(C5(c6nncn6C)CC6(CCC6)C5)c4)c(=O)n3c2)C1 [Compound 310] | < 100 nM
C[C@H]1CCCN(Cc2cc(C(F)(F)F)c3cn(-c4cccc(C5(Cc6nncn6C(F)F)COC5)c4)c(=O)n3c2)C1 [Compound 48] | < 100 nM
Cn1cnnc1[C@@H](c1cccc(-n2cc3c(C(F)(F)F)cc(-c4nncs4)cn3c2=O)c1)C1CCC1 [Compound 331] | 301 to 1000 nM

Further lines, results first:

IC50 | SMILES
> 10000 nM | C[C@H]1CCCN(Cc2cc(C(F)(F)F)c3cn(-c4cc(F)cc([C@@H](c5nncn5C)C5CCC5)c4)c(=O)n3c2)C1 (single isomer, unassigned) [Compound 242]
100 to 300 nM | CC1CCCN(Cc2cc(C(F)(F)F)c3cn(-c4cccc([C@H](c5nncn5C)C5CCC5)c4)c(=O)n3c2)CC1 (stereo partly shown) [Compound 350]
> 10000 nM | C[C@H]1CCCN(Cc2cc(C(F)(F)F)c3cn(-c4cccc([C@@H](c5nncn5C)[C@H]5C[C@@H](CO)C5)c4)c(=O)n3c2)C1 (single isomer, unassigned) [Compound 353]
< 100 nM | Cn1cnnc1[C@@H](c1cccc(-n2cc3c(C(F)(F)F)cc(CN4CCC[C@@H](C(F)(F)F)C4)cn3c2=O)c1)C1CCC1 (single isomer, unassigned) [Compound 272]

Same assay, conditions: second part of Table 2 (head 'Patent Cmpd No / Updated Activity'); same CBL-B TR-FRET IC50 bins A-F; read-out: Updated Activity

SMILES | IC50
C[C@H](c1cc(C(F)(F)F)c2cn(-c3cccc([C@H](c4nncn4C)C4CCC4)c3)c(=O)n2c1)N1CC[C@H](C#N)C1 (single isomer, unassigned) [Compound 573_P1] | < 100 nM
COC(=O)CCN(C)Cc1cc(C(F)(F)F)c2cn(-c3cccc([C@H](c4nncn4C)C4CCC4)c3)c(=O)n2c1 [Compound 596] | < 100 nM
Cn1cnnc1[C@@H](c1cccc(-n2cc3c(C(F)(F)F)cc(CN4CCC5(CCNC5=O)CC4)cn3c2=O)c1)C1CCC1 [Compound 609] | < 100 nM
C[C@@H](c1cc(C(F)(F)F)c2cn(-c3cccc([C@H](c4nncn4C)C4CCC4)c3)c(=O)n2c1)N1CCC[C@@H](C(F)(F)F)C1 (single isomer, unassigned) [Compound 614] | < 100 nM

More lines, now with the values ahead:

IC50 | SMILES
> 10000 nM | COCc1nc([C@H](c2cccc(-n3cc4c(C(F)(F)F)cc(CN5CCC[C@H](C)C5)cn4c3=O)c2)C2CCC2)c(C)s1 (single isomer, unassigned) [Compound 386]
> 10000 nM | C[C@H]1CCCN(Cc2cc(C(F)(F)F)c3cn(-c4cccc([C@@H](c5n[nH]cc5C#N)C5CCC5)c4)c(=O)n3c2)C1 [Compound 566]
< 100 nM | C[C@H]1CCC[N+]([O-])(Cc2cc(C(F)(F)F)c3cn(-c4cccc([C@H](c5nncn5C)C5CCC5)c4)c(=O)n3c2)C1 (stereo partly shown) [Compound 563]
< 100 nM | C[C@H]1CCCN(Cc2cc(C(F)(F)F)c3cn(-c4csc([C@H](c5nncn5C)C5CCC5)c4)c(=O)n3c2)C1 [Compound 550_P2]
